{
  "source": "patent US20130072430A1",
  "about": "“METHODS FOR TREATMENT OR PROPHYLAXIS OF KIDNEY OR LIVER DYSFUNCTION” (NPS PHARMACEUTICALS, INC., priority 2010, published 2013)",
  "system": "Human patients with short bowel syndrome",
  "assay": "Example 1: kidney diagnostic biomarkers (urea nitrogen, creatinine, GFR) in short bowel syndrome patients, every four weeks for 24 weeks",
  "type": "in vivo",
  "set-up": "CREATININE (RATE BLANKED) Change from Baseline, Median / GFR, Median / GFR Change from Baseline, Median / UREA NITROGEN, Median / UREA NITROGEN Change from Baseline, Median: unit not given here",
  "settings": "0.05 mg/kg/day; for CREATININE (RATE BLANKED), Median: unit assumed",
  "experimental": "Human patients with short bowel syndrome were divided into three groups: a control group (16 total individuals) to receive placebo, an experimental group (35 total individuals) to receive teduglutide at 0.05 mg/kg/day throughout the study, and an experimental group (32 total individuals) to receive teduglutide at 0.1 mg/kg/day throughout the study. Patients were treated by subcutaneous injection of placebo or the appropriate dose of teduglutide. As individuals with short bowel syndrome are likely to experience associated liver and kidney disease, known biomarkers of liver and kidney function were monitored every four weeks, for 24 weeks. The liver biomarkers tested included total bilirubin, ALT and AST and ALP. The kidney biomarkers tested included urea nitrogen, creatinine and GFR. Before administration of placebo or teduglutide, diagnostic biomarker levels were tested to establish a baseline for each individual.\nTo visualize the effect of GLP-2 on the levels of the diagnostic biomarkers, the average change from baseline was calculated for the placebo and teduglutide treated groups for each visit after a baseline was established. The average change from baseline of each group is depicted in FIGS. […]. The numerical figures for each diaanostic biomarker at each time point are depicted in Table 1.\nThe raw data for this sorting is reproduced in Table 2 below.",
  "data": [
    {"compound": "CC[C@H](C)[C@H](NC(=O)[C@H](Cc1ccccc1)NC(=O)[C@H](CC(=O)O)NC(=O)[C@H](CCCNC(=N)N)NC(=O)[C@H](C)NC(=O)[C@H](C)NC(=O)[C@H](CC(C)C)NC(=O)[C@H](CC(N)=O)NC(=O)[C@H](CC(=O)O)NC(=O)[C@H](CC(C)C)NC(=O)[C@@H](NC(=O)[C@@H](NC(=O)[C@H](CC(N)=O)NC(=O)[C@H](CCSC)NC(=O)[C@H](CCC(=O)O)NC(=O)[C@H](CC(=O)O)NC(=O)[C@H](CO)NC(=O)[C@H](Cc1ccccc1)NC(=O)[C@H](CO)NC(=O)CNC(=O)[C@H](CC(=O)O)NC(=O)CNC(=O)[C@@H](N)Cc1c[nH]cn1)[C@@H](C)O)[C@@H](C)CC)C(=O)N[C@@H](CC(N)=O)C(=O)N[C@@H](Cc1c[nH]c2ccccc12)C(=O)N[C@@H](CC(C)C)C(=O)N[C@H](C(=O)N[C@@H](CCC(N)=O)C(=O)N[C@H](C(=O)N[C@@H](CCCCN)C(=O)N[C@H](C(=O)N[C@H](C(=O)N[C@@H](CC(=O)O)C(=O)O)[C@@H](C)O)[C@@H](C)CC)[C@@H](C)O)[C@@H](C)CC", "note": "[teduglutide]", "values": [
      {"measurement": "CREATININE (RATE BLANKED) Change from Baseline, Mean (SD)", "setting": "DW4", "value": "1.2 (12.01)"},
      {"measurement": "CREATININE (RATE BLANKED) Change from Baseline, Median", "setting": "DW4", "value": 1.5},
      {"measurement": "CREATININE (RATE BLANKED), Mean (SD)", "setting": "DW4", "value": "84.8 (30.01)"},
      {"measurement": "GFR Change from Baseline, Mean (SD)", "setting": "DW4", "value": "−1.4 (12.80)"},
      {"measurement": "GFR Change from Baseline, Median", "setting": "DW4", "value": "−0.6"},
      {"measurement": "GFR, Mean (SD)", "setting": "DW4", "value": "86.1 (36.99)"},
      {"measurement": "GFR, Median", "setting": "DW4", "value": 77.0},
      {"measurement": "UREA NITROGEN Change from Baseline, Mean (SD)", "setting": "DW4", "value": "−0.4 (2.16)"},
      {"measurement": "UREA NITROGEN Change from Baseline, Median", "setting": "DW4", "value": "−0.4"},
      {"measurement": "UREA NITROGEN, Mean (SD)", "setting": "DW4", "value": "5.3 (2.09)"},
      {"measurement": "UREA NITROGEN, Median", "setting": "DW4", "value": 4.9},
      {"measurement": "CREATININE (RATE BLANKED), Median", "setting": "DW4", "value": 80, "unit": "µmol/L"},
      {"measurement": "CREATININE (RATE BLANKED) Change from Baseline, Mean (SD)", "setting": "DW8", "value": "−1.1 (15.51)"},
      {"measurement": "CREATININE (RATE BLANKED) Change from Baseline, Median", "setting": "DW8", "value": 0.0},
      {"measurement": "CREATININE (RATE BLANKED), Mean (SD)", "setting": "DW8", "value": "81.9 (27.34)"},
      {"measurement": "GFR Change from Baseline, Mean (SD)", "setting": "DW8", "value": "−0.1 (19.13)"},
      {"measurement": "GFR Change from Baseline, Median", "setting": "DW8", "value": 1.1},
      {"measurement": "GFR, Mean (SD)", "setting": "DW8", "value": "89.1 (39.16)"},
      {"measurement": "GFR, Median", "setting": "DW8", "value": 81.6},
      {"measurement": "UREA NITROGEN Change from Baseline, Mean (SD)", "setting": "DW8", "value": "−0.4 (2.02)"},
      {"measurement": "UREA NITROGEN Change from Baseline, Median", "setting": "DW8", "value": "−0.3"},
      {"measurement": "UREA NITROGEN, Mean (SD)", "setting": "DW8", "value": "5.3 (1.58)"},
      {"measurement": "UREA NITROGEN, Median", "setting": "DW8", "value": 5.2},
      {"measurement": "CREATININE (RATE BLANKED), Median", "setting": "DW8", "value": 71, "unit": "µmol/L"},
      {"measurement": "CREATININE (RATE BLANKED) Change from Baseline, Mean (SD)", "setting": "DW12", "value": "1.8 (16.71)"},
      {"measurement": "CREATININE (RATE BLANKED) Change from Baseline, Median", "setting": "DW12", "value": 8.0},
      {"measurement": "CREATININE (RATE BLANKED), Mean (SD)", "setting": "DW12", "value": "86.8 (29.41)"},
      {"measurement": "GFR Change from Baseline, Mean (SD)", "setting": "DW12", "value": "−3.1 (12.18)"},
      {"measurement": "GFR Change from Baseline, Median", "setting": "DW12", "value": "−5.0"},
      {"measurement": "GFR, Mean (SD)", "setting": "DW12", "value": "85.7 (39.48)"},
      {"measurement": "GFR, Median", "setting": "DW12", "value": 76.5},
      {"measurement": "UREA NITROGEN Change from Baseline, Mean (SD)", "setting": "DW12", "value": "−0.8 (1.86)"},
      {"measurement": "UREA NITROGEN Change from Baseline, Median", "setting": "DW12", "value": "−0.5"},
      {"measurement": "UREA NITROGEN, Mean (SD)", "setting": "DW12", "value": "4.8 (1.69)"},
      {"measurement": "UREA NITROGEN, Median", "setting": "DW12", "value": 4.4},
      {"measurement": "CREATININE (RATE BLANKED), Median", "setting": "DW12", "value": 80, "unit": "µmol/L"},
      {"measurement": "CREATININE (RATE BLANKED) Change from Baseline, Mean (SD)", "setting": "DW16", "value": "−1.6 (13.06)"},
      {"measurement": "CREATININE (RATE BLANKED) Change from Baseline, Median", "setting": "DW16", "value": 0.0},
      {"measurement": "CREATININE (RATE BLANKED), Mean (SD)", "setting": "DW16", "value": "82.1 (29.95)"},
      {"measurement": "GFR Change from Baseline, Mean (SD)", "setting": "DW16", "value": "0.8 (12.08)"},
      {"measurement": "GFR Change from Baseline, Median", "setting": "DW16", "value": 0.9},
      {"measurement": "GFR, Mean (SD)", "setting": "DW16", "value": "89.8 (38.02)"},
      {"measurement": "GFR, Median", "setting": "DW16", "value": 84.1},
      {"measurement": "UREA NITROGEN Change from Baseline, Mean (SD)", "setting": "DW16", "value": "−0.5 (2.13)"},
      {"measurement": "UREA NITROGEN Change from Baseline, Median", "setting": "DW16", "value": "−0.3"},
      {"measurement": "UREA NITROGEN, Mean (SD)", "setting": "DW16", "value": "5.0 (1.73)"},
      {"measurement": "UREA NITROGEN, Median", "setting": "DW16", "value": 4.4},
      {"measurement": "CREATININE (RATE BLANKED), Median", "setting": "DW16", "value": 79, "unit": "µmol/L"},
      {"measurement": "CREATININE (RATE BLANKED) Change from Baseline, Mean (SD)", "setting": "DW20", "value": "0.7 (13.11)"},
      {"measurement": "CREATININE (RATE BLANKED) Change from Baseline, Median", "setting": "DW20", "value": 0.0},
      {"measurement": "CREATININE (RATE BLANKED), Mean (SD)", "setting": "DW20", "value": "85.6 (28.77)"},
      {"measurement": "GFR Change from Baseline, Mean (SD)", "setting": "DW20", "value": "−2.0 (16.60)"},
      {"measurement": "GFR Change from Baseline, Median", "setting": "DW20", "value": 0.9},
      {"measurement": "GFR, Mean (SD)", "setting": "DW20", "value": "83.2 (32.77)"},
      {"measurement": "GFR, Median", "setting": "DW20", "value": 74.0},
      {"measurement": "UREA NITROGEN Change from Baseline, Mean (SD)", "setting": "DW20", "value": "−0.6 (1.94)"},
      {"measurement": "UREA NITROGEN Change from Baseline, Median", "setting": "DW20", "value": "−0.3"},
      {"measurement": "UREA NITROGEN, Mean (SD)", "setting": "DW20", "value": "5.0 (1.80)"},
      {"measurement": "UREA NITROGEN, Median", "setting": "DW20", "value": 5.2},
      {"measurement": "CREATININE (RATE BLANKED), Median", "setting": "DW20", "value": 77.5, "unit": "µmol/L"},
      {"measurement": "CREATININE (RATE BLANKED) Change from Baseline, Mean (SD)", "setting": "DW24", "value": "−2.9 (14.03)"},
      {"measurement": "CREATININE (RATE BLANKED) Change from Baseline, Median", "setting": "DW24", "value": "−0.5"},
      {"measurement": "CREATININE (RATE BLANKED), Mean (SD)", "setting": "DW24", "value": "82.8 (31.57)"}
    ]}
  ]
}
